Target: T1, LPA3 (Homo sapiens, UniProt Q9UBY5)
T1 construct: expressed in transfected cells
T1 sequence (Q9UBY5 1-353): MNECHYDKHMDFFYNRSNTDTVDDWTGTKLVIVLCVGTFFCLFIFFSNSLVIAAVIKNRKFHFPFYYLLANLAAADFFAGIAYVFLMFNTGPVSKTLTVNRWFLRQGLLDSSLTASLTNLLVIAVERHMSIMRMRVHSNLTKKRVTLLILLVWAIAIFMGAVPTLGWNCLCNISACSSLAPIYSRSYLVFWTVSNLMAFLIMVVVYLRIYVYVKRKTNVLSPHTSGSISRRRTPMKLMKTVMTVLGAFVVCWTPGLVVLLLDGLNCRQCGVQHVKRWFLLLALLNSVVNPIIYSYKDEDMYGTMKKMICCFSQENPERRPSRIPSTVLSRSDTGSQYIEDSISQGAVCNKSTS
Experiment: LPA receptor-mediated Ca2+ mobilization assay, LPA3
Format: cell-based
Details: for LPA3 Imax (%): inhibition by 10 μM compound of ~EC75 LPA 18:1 Ca2+ response; for inhibition of LPA3 Ca2+ response: 10 μM, ~EC75 LPA 18:1
Experimental: Similarity searches were performed separately using each fingerprint to quantitate similarity. Hits meeting the 80% similarity threshold from each search were ranked based on the Tanimoto coefficient measure of similarity to a target molecule NSC12404, and the top 75 unique hits from each fingerprint search were selected for further analysis. The 225 compounds selected for further analysis were clustered based on Tanimoto coefficients calculated using Molecular ACCess System-key fingerprints (MACCS keys) and evaluated using the diversity subset function implemented in MOE. This selected a diverse subset of 27 compounds for biological evaluation by choosing the middle compounds in each cluster. These 27 compounds were tested in Ca^2+ mobilization assays at a concentration of 10 μM using stable cell lines individually expressing LPA2 and also in vector-transfected control cells. Hits activating LPA2 were further tested using cells expressing the other established and putative LPA GPCRs. […] They arbitrarily selected GRI977143 for further characterization in cell-based assays.
J Biol Chem (2009) 284(25): 17304-17319). […] The cells were loaded with Fura-2-acetoxymethyl esther (Fura-2/AM) in Krebs buffer containing 0.01% pluronic acid for 30 min and rinsed with Krebs buffer before measuring Ca^2+ mobilization. The ratio of peak emissions at 510 nm after 2 min of ligand addition was determined for excitation wavelengths of 340 nm/380 nm. All samples were run in quadruplicate. […] The half maximally effective concentration (EC50), and inhibitory constant (Ki) values were calculated by fitting a sigmoid function to dose-response data points using KaleidaGraph software (version 4.1, Synergy Software; […]).
Mouse embryonic fibroblast (MEF) cells were isolated from E13.5 LPA1&2 double knockout (DKO) embryos. MEFs were transduced with empty vector or LPA2-containing lentiviruses and selected with 1.5 μg/ml puromycin. Cells were maintained in Dulbecco's modified Eagle medium (DMEM) supplemented with 10% (V/V) fetal bovine serum (FBS), 2 mM L-glutamine, 100 U/mL penicillin, and 100 μg/mL streptomycin. Serum-free medium contained 0.1% (W/V) BSA in DMEM. The rat intestinal epithelial cell line 6 (IEC-6) was obtained from the American Type Culture Collection (Rockville, Md.) at passage 13; passages 16-21 were used in all experiments. IEC-6 cells were maintained in a humidified 37° C. incubator in an atmosphere of 90% air and 10% CO2. Growth medium consisted of DMEM supplemented with 5% heat inactivated FBS, 10 μg/mL insulin, and 50 μg/mL gentamycin. The composition of the serum-starvation medium was the same as that of the full growth medium except that it contained no FBS. The McArdle rat hepatoma cell line (RH7777) stably expressing LPA2 receptors was a gift from Dr. Fumikazu Okajima (Gunma University, Maebashi, Japan). RH7777 cells stably expressing LPA1 or LPA3 receptors were generated in-house and had been characterized earlier. Wild type and LPA receptor (LPAR) stably transfected RH7777 cells were grown in DMEM supplemented with 10% FBS and 2 mM L-glutamine in the presence of 250 μg/ml G418. Chinese hamster ovary (CHO) cells stably expressing either vector or LPA4 receptor were a kind gift from Dr. Takao Shimizu (Tokyo University; Tokyo, Japan). Cells were cultured in Ham's F12 medium containing 10% FBS, 2 mM L-glutamine, and 350 μg/ml G418. Rat neuroblastoma cells (B103) were transduced with the lentivirus harboring wild type of FLAG-LPA5 and selected with puromycin to establish the stable cell lines. The stable cells were maintained in DMEM supplemented with 10% FBS and 0.4 μg/ml puromycin. GPR87- and P2Y10-expressing CHO cells and vector-transfected control cells were a gift from Dr. Norihisha Fujita (Ritsumeikan University; Shiga, Japan).

Compound	LPA3 Imax (%)	inhibition of LPA3 Ca2+ response	Ki (antagonist, Ca2+ mobilization, read-out: LPA3 K) [nM]	EC50 (agonist, Ca2+ mobilization) [nM]
O=C(O)c1cc(Cl)c(Cl)cc1C(=O)Nc1ccc2c(c1)C(=O)c1ccccc1-2 [Compound H2L5547924]	66	–	–	–
O=C(O)c1ccccc1C(=O)Nc1ccc2c(c1)C(=O)c1ccccc1C2=O [Compound H2L5828102]	100	fully inhibited	1500	–
O=C(O)c1ccccc1SCCCN1C(=O)c2cccc3cccc(c23)C1=O [GRI977143]	55	inhibited LPA3	–	–
O=C(O)c1ccccc1C(=O)Nc1ccc2c(c1)C(=O)c1ccccc1-2 [NSC12404]	61	inhibited LPA3	–	–
octadecenyl thiophosphate [OTP]	–	–	–	297
